Values of other authors, collected in patent US7662599B2, “Nucleic acids and polypeptides involved in the production of cryptophycin” (priority 2004, dated 2010).

Conditions: comparison in words

Compound: COc1ccc(C[C@H]2NC(=O)/C=C/C[C@@H]([C@H](C)[C@H]3O[C@@H]3c3ccccc3)OC(=O)[C@H](CC(C)C)OC(=O)[C@H](C)CNC2=O)cc1Cl [Cryptophycin 1]
- activity relative to other cryptophycins: the most active natural compound
